Bridge positions count the residues as written; N and C are the ends. Square brackets hold non-standard residues; d marks the D form. Peptide text beside a SMILES is read from it. * marks the point of attachment. ξ: configuration not given here. Phe(4-COOH) = N[C@@H](Cc1ccc(C(=O)O)cc1)C(=O)O; Bip = N[C@@H](Cc1ccc(-c2ccccc2)cc1)C(=O)O; NH(CH2)14COOH = O=C(O)CCCCCCCCCCCCCCN*; Phe(3-Me) = Cc1cccc(C[C@H](N)C(=O)O)c1; Phe(4-F) = N[C@@H](Cc1ccc(F)cc1)C(=O)O; ξBip = NC(Cc1ccc(-c2ccccc2)cc1)C(=O)O; Val(3-OH) = CC(C)(O)[C@H](N)C(=O)O; 4Pal = N[C@@H](Cc1ccncc1)C(=O)O; Cha = N[C@@H](CC1CCCCC1)C(=O)O; Cit = NC(=O)NCCC[C@H](N)C(=O)O; dCha = N[C@H](CC1CCCCC1)C(=O)O; Thr(3ξ) = CC(O)[C@H](N)C(=O)O; 4Abz = Nc1ccc(C(=O)O)cc1; Carboxymethyl = O=C(O)C*; Nle = CCCC[C@H](N)C(=O)O; Orn = NCCC[C@H](N)C(=O)O; Aun = NCCCCCCCCCCC(=O)O; Dab = NCC[C@H](N)C(=O)O; Dap = NC[C@H](N)C(=O)O; ξD = NC(CC(=O)O)C(=O)O; AEEA = NCCOCCOCC(=O)O
target: T1, PD-1/PD-L1 interaction (PE-labeled human PD-L1-Ig binding to Jurkat cell line over-expressing human PD-1) (Homo sapiens, UniProt Q15116); experiment: Jurkat-PD-1 Cell Binding High-Content Screening Assay (CBA); format: cell-based; conditions: Jurkat cell line over-expressing human PD-1; PE-labeled PD-L1-Ig 20 nM final; read-out: Jurkat hPD1-PDL1 IC50
T1 construct: expressed in transfected cells; host or cells: Jurkat
T1 sequence (Q15116 25-288): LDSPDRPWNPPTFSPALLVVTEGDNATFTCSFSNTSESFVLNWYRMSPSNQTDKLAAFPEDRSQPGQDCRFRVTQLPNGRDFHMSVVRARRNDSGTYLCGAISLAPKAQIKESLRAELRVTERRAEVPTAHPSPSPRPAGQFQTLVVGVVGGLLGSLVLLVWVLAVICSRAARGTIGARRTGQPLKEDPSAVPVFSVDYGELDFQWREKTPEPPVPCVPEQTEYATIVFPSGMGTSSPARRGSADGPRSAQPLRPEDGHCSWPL
Procedure, shortened: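 Jurkat cells over-expressing human PD-1 (8×10^3 per well, DMEM/10% FCS) preincubated with compound 2 h at 37° C, then PE-labeled human PD-L1-Ig (20 nM final) added for 1 h. Cells fixed with paraformaldehyde, Hoechst-stained, and bound fluorescence quantified by high-content imaging.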

| IC50 [nM] | SMILES |
| --- | --- |
| 369 | CCCC[C@@H]1NC(=O)CSC[C@@H](C(=O)N[C@@H](CCN)C(=O)NCCOCCOCC(=O)N[C@@H](CO)C(=O)N[C@H](CCC(=O)NCCCCCCCCCCCCCCC(=O)O)C(=O)O)NC(=O)[C@H](CC(=O)O)NC(=O)[C@H](C(C)(C)O)NC(=O)[C@H](CC2CCCCC2)NC(=O)[C@H](CCN)NC(=O)[C@@H](CC(C)C)NC(=O)[C@H](CCCN)NC(=O)[C@H](Cc2ccc(OCC(=O)O)cc2)NC(=O)[C@H](Cc2ccc(-c3ccccc3)cc2)NC(=O)[C@H](Cc2ccc(C(=O)O)cc2)NC(=O)[C@H](Cc2cccc(C)c2)NC(=O)[C@H](CC(=O)O)NC(=O)[C@H](Cc2ccc(OCC(=O)O)cc2)NC1=O [Compound 3893] ({CH2CO}-[Nle]Y(Carboxymethyl)D[Phe(3-Me)][Phe(4-COOH)][Bip]Y(Carboxymethyl)[Orn][dL][Dab][Cha][Val(3-OH)]DC[Dab][AEEA]S[dE](NH(CH2)14COOH)-OH; thioether N-14) |
| 15.5 | CC(C)C[C@H]1NC(=O)[C@H](CCCN)NC(=O)[C@H](C(C)C)NC(=O)[C@H](Cc2ccc(-c3ccccc3)cc2)NC(=O)[C@H](C(C)C)NC(=O)[C@H](Cc2c[nH]c3ccccc23)NC(=O)[C@H](CC(=O)O)NC(=O)[C@H](Cc2ccc(OCC(=O)O)cc2)NC(=O)[C@H](CN)NC(=O)CSC[C@@H](C(=O)NCCOCCOCC(=O)N[C@@H](CCCCN)C(=O)NCCCCCCCCCCC(=O)O)NC(=O)[C@H](C(C)O)NC(=O)[C@H](C(C)C)NC(=O)[C@H](CC2CCCCC2)NC(=O)[C@H](CC(N)=O)NC1=O (stereo partly drawn) [Compound 3128] ({CH2CO}-[Dap]Y(Carboxymethyl)DWV[Bip]V[Orn][dL]N[Cha]V[Thr(3ξ)]C[AEEA]K[Aun]-OH; thioether N-14) |
| 14.9 | Cc1cccc(C[C@@H]2NC(=O)[C@H](CC(=O)O)NC(=O)[C@H](Cc3ccc(OCC(=O)O)cc3)NC(=O)[C@H](CN)NC(=O)CSC[C@@H](C(=O)N[C@@H](CCN)C(=O)NCCOCCOCC(=O)NCCCCCCCCCCC(=O)O)NC(=O)[C@H](CCCNC(=N)N)NC(=O)[C@H](C(C)C)NC(=O)[C@H](CC3CCCCC3)NC(=O)[C@H](CCN)NC(=O)[C@@H](CC3CCCCC3)NC(=O)[C@H](CCCN)NC(=O)[C@H](C(C)C)NC(=O)[C@H](Cc3ccc(-c4ccccc4)cc3)NC(=O)[C@H](C(C)C)NC2=O)c1 [Compound 2683] ({CH2CO}-[Dap]Y(Carboxymethyl)D[Phe(3-Me)]V[Bip]V[Orn][dCha][Dab][Cha]VRC[Dab][AEEA][Aun]-OH; thioether N-14) |
| 19.7 | Cc1cccc(C[C@@H]2NC(=O)[C@H](CC(=O)O)NC(=O)[C@H](Cc3ccc(OCC(=O)O)cc3)NC(=O)[C@H](Cc3ccc(OCC(=O)O)cc3)NC(=O)CSC[C@@H](C(=O)NCCOCCOCC(=O)NCCCCCCCCCCC(=O)O)NC(=O)[C@H](CO)NC(=O)[C@H](C(C)C)NC(=O)[C@H](CC(C)C)NC(=O)[C@H](CCN)NC(=O)[C@@H](CC(C)C)NC(=O)[C@H](CCCN)NC(=O)[C@H](C(C)C)NC(=O)[C@H](Cc3ccc(-c4ccccc4)cc3)NC(=O)[C@@H](CC(C)C)NC2=O)c1 [Compound 1149] ({CH2CO}-Y(Carboxymethyl)Y(Carboxymethyl)D[Phe(3-Me)][dL][Bip]V[Orn][dL][Dab]LVSC[AEEA][Aun]-OH; thioether N-14) |
| 7.2 | Cc1cccc(C[C@@H]2NC(=O)C(CC(=O)O)NC(=O)[C@H](Cc3ccc(OCC(=O)O)cc3)NC(=O)[C@H](CN)NC(=O)CSC[C@@H](C(=O)NCCOCCOCC(=O)N[C@@H](CN)C(=O)NCCCCCCCCCCC(=O)O)NC(=O)[C@H]([C@@H](C)O)NC(=O)[C@H](C(C)C)NC(=O)[C@H](CC3CCCCC3)NC(=O)[C@H](CCN)NC(=O)[C@@H](CC(C)C)NC(=O)[C@H](CCCN)NC(=O)[C@H](CCCNC(N)=O)NC(=O)C(Cc3ccc(-c4ccccc4)cc3)NC(=O)[C@H](C(C)C)NC2=O)c1 (stereo partly drawn) [Compound 1176] ({CH2CO}-[Dap]Y(Carboxymethyl)[ξD][Phe(3-Me)]V[ξBip][Cit][Orn][dL][Dab][Cha]VTC[AEEA][Dap][Aun]-OH; thioether N-14) |
| 16.9 | Cc1cccc(C[C@@H]2NC(=O)[C@H](CC(=O)O)NC(=O)[C@H](Cc3ccc(OCC(=O)O)cc3)NC(=O)[C@H](CCN)NC(=O)CSC[C@@H](C(=O)N[C@@H](CCN)C(=O)NCCCCCCCCCCC(=O)O)NC(=O)[C@H](CO)NC(=O)[C@H](C(C)(C)O)NC(=O)[C@H](CC3CCCCC3)NC(=O)[C@H](Cc3cnc[nH]3)NC(=O)[C@@H](CC(C)C)NC(=O)[C@H](CCCN)NC(=O)[C@H](Cc3ccc(OCC(=O)O)cc3)NC(=O)[C@H](Cc3ccc(-c4ccccc4)cc3)NC(=O)[C@H](Cc3ccc(F)cc3)NC2=O)c1 [Compound 3731] ({CH2CO}-[Dab]Y(Carboxymethyl)D[Phe(3-Me)][Phe(4-F)][Bip]Y(Carboxymethyl)[Orn][dL]H[Cha][Val(3-OH)]SC[Dab][Aun]-OH; thioether N-14) |
| 20.6 | CC(C)C[C@@H]1NC(=O)[C@H](Cc2c[nH]c3ccccc23)NC(=O)[C@H](CC(=O)O)NC(=O)[C@H](Cc2ccc(C(=O)O)cc2)NC(=O)[C@H](Cc2ccc(OCC(=O)O)cc2)NC(=O)CSC[C@@H](C(=O)NCCOCCOCC(=O)NCCCCCCCCCCC(=O)O)NC(=O)[C@H](CCCN)NC(=O)[C@H](C(C)C)NC(=O)[C@H](CC2CCCCC2)NC(=O)[C@H](CCN)NC(=O)[C@@H](CC(C)C)NC(=O)[C@H](CCCN)NC(=O)[C@H](Cc2ccc(O)cc2)NC(=O)[C@H](Cc2ccc(-c3ccccc3)cc2)NC1=O [Compound 1240] ({CH2CO}-Y(Carboxymethyl)[Phe(4-COOH)]DWL[Bip]Y[Orn][dL][Dab][Cha]V[Orn]C[AEEA][Aun]-OH; thioether N-14) |
| 8.8 | CC(C)C[C@H]1NC(=O)[C@H](CCN)NC(=O)[C@H](C(C)C)NC(=O)[C@H](Cc2ccc(-c3ccccc3)cc2)NC(=O)[C@H](C(C)C)NC(=O)[C@H](Cc2c[nH]c3ccccc23)NC(=O)[C@H](CC(=O)O)NC(=O)[C@H](Cc2ccc(OCC(=O)O)cc2)NC(=O)[C@H](C(C)O)NC(=O)CSC[C@@H](C(=O)N[C@@H](CCN)C(=O)NCCCCCCCCCCC(=O)O)NC(=O)[C@H](CCCNC(N)=O)NC(=O)[C@H](C(C)C)NC(=O)[C@H](CC2CCCCC2)NC(=O)[C@H](CCN)NC1=O (stereo partly drawn) [Compound 3253] ({CH2CO}-[Thr(3ξ)]Y(Carboxymethyl)DWV[Bip]V[Dab][dL][Dab][Cha]V[Cit]C[Dab][Aun]-OH; thioether N-14) |

same assay, conditions: Jurkat hPD1-PDL1 IC50, Jurkat cell line over-expressing human PD-1; PE-labeled PD-L1-Ig 20 nM final

| SMILES | IC50 [nM] |
| --- | --- |
| CC(C)C[C@@H]1NC(=O)[C@H](Cc2c[nH]c3ccccc23)NC(=O)[C@H](CC(=O)O)NC(=O)[C@H](Cc2ccncc2)NC(=O)[C@H](Cc2ccc(OCC(=O)O)cc2)NC(=O)CSC[C@@H](C(=O)Nc2ccc(C(=O)NCCCCCCCCCCC(=O)O)cc2)NC(=O)[C@H](CCCNC(=N)N)NC(=O)[C@H](C(C)C)NC(=O)[C@H](CC2CCCCC2)NC(=O)[C@H](CCN)NC(=O)[C@@H](CC(C)C)NC(=O)[C@H](CCCN)NC(=O)[C@H](C(C)C)NC(=O)[C@H](Cc2ccc(-c3ccccc3)cc2)NC1=O [Compound 1230] ({CH2CO}-Y(Carboxymethyl)[4Pal]DWL[Bip]V[Orn][dL][Dab][Cha]VRC[4Abz][Aun]-OH; thioether N-14) | 537 |
